Experimental data reported in patent US20240067631A1, “PYRAZOLE DERIVATIVES USEFUL AS NAMPT MODULATORS” (Cytokinetics, Inc., priority 2020, published 2024).

Assays:
human NAMPT = human NAMPT (Homo sapiens (Human), UniProt P43490); experiment: Human recombinant enzyme assay (NMN fluorescence biochemical assay); details: 6 nM human NAMPT, 60 min; for AC1.4 Human: concentration of compound that generates 40% higher activity over basal; for EC50: concentration that gives half-maximal activation
Procedure, shortened: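 Recombinant human NAMPT (6 nM) with 2.5 mM ATP, […] PRPP and […] nicotinamide in HEPES pH 7.2 with DTT, CHAPS, NaCl, MgCl2; 60 min at ambient temperature. NMN derivatised with acetophenone/KOH/formic acid, fluorescence read at 355/460 nm. AC1.4 (40% above basal) and EC50 reported.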

endogenous NAMPT = endogenous NAMPT (Homo sapiens (Human), UniProt P43490); experiment: Cellular NAD+ modulation assay in SH-SY5Y cells with doxorubicin; format: cell-based; details: Neuroblastoma SH-SY5Y cells, 40 hours, cellular NAD levels; for EC50: read-out: SY5Y (human) NAD Cell Dox EC50
Description: The compounds described herein were also assayed for their ability to stimulate the endogenous NAMPT in a native cellular environment in the cellular NAD+ modulation assay, which measures the ability of the compound to modulate cellular NAD levels. Increased levels of NAD are expected by compounds that permeate the cells and activate the catalytic activity of the endogenous NAMPT.
Neuroblastoma SH-SY5Y cells were grown in 1:1 mixture of Eagle's Minimum Essential Medium and F12 Medium, along with 10% fetal bovine serum, in a humidified incubator with an atmosphere of 95% air and 5% CO2 at 37° C. The assays were initiated by plating 20 μL of SH-SY5Y cells in culture medium with 0.1% fetal bovine serum, at a density of 5000 cells per well to a 384-well Corning™ BioCoat™ Poly-D-Lysine Multiwell Plates. The plates were incubated in the 37° C. incubators for a period of 5 hours. Compounds in DMSO were added to the plates in a volume of 120 nL using the Labcyte Echo Liquid Handlers. 5 μL of a 1.5 uM Doxorubicin solution in assay medium is added to each well. The plates are then incubated for 40 hours. 30 μL of a readout-solution containing 0.2 U/mL Diaphorase enzyme, 40 uM resazurin, 10 uM FMN, 0.8 U/mL Alcohol dehydrogenase, 3% ethanol, 0.4 mg/mL bovine serum albumin, 0.2% Triton X-100 in 100 mM Tris-HCl, 30 mM EDTA, pH 8.4. The plates were read for fluorescence (Excitation/Emission=540 nm/590 nm) using an EnVision plate reader after 60 mins of incubation at ambient temperature.

endogenous NAMPT, sequence (P43490 whole entry): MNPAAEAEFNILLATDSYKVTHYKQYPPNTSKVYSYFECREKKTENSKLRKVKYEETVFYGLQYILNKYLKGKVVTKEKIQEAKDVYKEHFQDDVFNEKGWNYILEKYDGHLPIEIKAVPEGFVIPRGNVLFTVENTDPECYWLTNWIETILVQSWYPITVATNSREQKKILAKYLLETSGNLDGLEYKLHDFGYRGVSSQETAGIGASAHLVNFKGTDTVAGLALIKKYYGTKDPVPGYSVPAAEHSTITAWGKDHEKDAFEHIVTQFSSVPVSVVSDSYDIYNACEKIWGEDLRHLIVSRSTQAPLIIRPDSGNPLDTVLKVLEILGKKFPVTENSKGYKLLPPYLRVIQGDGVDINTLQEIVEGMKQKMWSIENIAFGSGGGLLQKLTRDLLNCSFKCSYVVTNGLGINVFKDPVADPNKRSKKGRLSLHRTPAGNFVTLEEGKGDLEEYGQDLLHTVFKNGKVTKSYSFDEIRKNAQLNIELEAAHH
human NAMPT, sequence (P43490 whole entry): as above

SMILES	AC1.4 Human (human NAMPT) [µM]	EC50 (human NAMPT) [µM]	SY5Y (human) NAD Cell Dox AC0.3 (endogenous NAMPT) [µM]	EC50 (endogenous NAMPT) [µM]
Cc1nc(C(=O)N[C@H](C)c2cccc(F)n2)nc(NCCc2cn[nH]c2)c1F [Compound 149, (R)-4-((2-(1H-pyrazol-4-yl)ethyl)amino)-5-fluoro-N-(1-(6-fluoropyridin-2-yl)ethyl)-6-methylpyrimidine-2-carboxamide]	0.02		0.01	
Cc1nc(C(=O)NC(c2cccc(F)c2)c2ncco2)nc(NCCc2cn[nH]c2)c1C (stereo not shown) [Compound 23, 4-((2-(1H-pyrazol-4-yl)ethyl)amino)-N-((3-fluorophenyl)(oxazol-2-yl)methyl)-5,6-dimethylpyrimidine-2-carboxamide]	0.0955	3.24	1.57	3.25
Cc1nc(C(=O)N[C@H](C)c2cccc(F)n2)nc(NCCc2cn[nH]c2)c1Cl [Compound 147, (R)-4-((2-(1H-pyrazol-4-yl)ethyl)amino)-5-chloro-N-(1-(6-fluoropyridin-2-yl)ethyl)-6-methylpyrimidine-2-carboxamide]	<0.003		0.02	
Cc1nc(C(=O)N2CC(O)(c3ccccc3)C2)nc(NCCc2cn[nH]c2)c1C [Compound 22, (4-((2-(1H-pyrazol-4-yl)ethyl)amino)-5,6-dimethylpyrimidin-2-yl)(3-hydroxy-3-phenylazetidin-1-yl)methanone]	1.956	12.8	7.15	8.84
C[C@@H](NC(=O)c1cc(Br)cc(NCCc2cn[nH]c2)n1)c1cccc(F)n1 [Compound 151, (R)-6-((2-(1H-pyrazol-4-yl)ethyl)amino)-4-bromo-N-(1-(6-fluoropyridin-2-yl)ethyl)picolinamide]			0.17	
Cc1nc(C(=O)NC(c2ccccc2F)c2nccn2C)nc(NCCc2cn[nH]c2)c1C (stereo not shown) [Compound 98, 4-((2-(1H-pyrazol-4-yl)ethyl)amino)-N-((2-fluorophenyl)(1-methyl-1H-imidazol-2-yl)methyl)-5,6-dimethylpyrimidine-2-carboxamide]	1.3275	5.15		
Cc1nc(C(=O)NCC2(c3ccccc3)COC2)nc(NCCc2cn[nH]c2)c1C [Compound 94, 4-((2-(1H-pyrazol-4-yl)ethyl)amino)-5,6-dimethyl-N-((3-phenyloxetan-3-yl)methyl)pyrimidine-2-carboxamide]	1.271	8.13		
Cc1nc(C(=O)N2CC3(C2)C(=O)Nc2ccccc23)nc(NCCc2cn[nH]c2)c1C [Compound 142, 1-(4-((2-(1H-pyrazol-4-yl)ethyl)amino)-5,6-dimethylpyrimidine-2-carbonyl)spiro[azetidine-3,3′-indolin]-2′-one]	4.3845	31.8		
Cc1nc(C(=O)NCC(C)(O)c2ccccc2)nc(NCCc2cn[nH]c2)c1C (stereo not shown) [Compound 104, 4-((2-(1H-pyrazol-4-yl)ethyl)amino)-N-(2-hydroxy-2-phenylpropyl)-5,6-dimethylpyrimidine-2-carboxamide]	1.6495	11.3		
Cc1nc(C(=O)N2CC(OC(F)(F)F)C2)nc(NCCc2cn[nH]c2)c1C [Compound 81, (4-((2-(1H-pyrazol-4-yl)ethyl)amino)-5,6-dimethylpyrimidin-2-yl)(3-(trifluoromethoxy)azetidin-1-yl)methanone]	0.891	5.98		
Cc1nc(C(=O)N2CC3(CCC3)C2)nc(NCCc2cn[nH]c2)c1C [Compound 123, (4-((2-(1H-pyrazol-4-yl)ethyl)amino)-5,6-dimethylpyrimidin-2-yl)(2-azaspiro[3.3]heptan-2-yl)methanone]	2.581	26.4		
Cc1nc(C(=O)N[C@H](C)c2cccnc2)nc(NCCc2cn[nH]c2)c1C [Compound 127, (R)-4-((2-(1H-pyrazol-4-yl)ethyl)amino)-5,6-dimethyl-N-(1-(pyridin-3-yl)ethyl)pyrimidine-2-carboxamide]	32.9385	60		
Cc1nc(C(=O)NCc2n[nH]c3ccccc23)nc(NCCc2cn[nH]c2)c1C [Compound 105, N-((1H-indazol-3-yl)methyl)-4-((2-(1H-pyrazol-4-yl)ethyl)amino)-5,6-dimethylpyrimidine-2-carboxamide]	1.669	2.52		

The remaining molecules from weak to strong by EC50 (human NAMPT), led by results:

AC1.4 Human (human NAMPT) [µM]	EC50 (human NAMPT) [µM]	SY5Y (human) NAD Cell Dox AC0.3 (endogenous NAMPT) [µM]	EC50 (endogenous NAMPT) [µM]	SMILES
0.327	1.88			Cc1nc(C(=O)N2CC(O)(c3cccc(F)c3F)C2)nc(NCCc2cn[nH]c2)c1C [Compound 51, (4-((2-(1H-pyrazol-4-yl)ethyl)amino)-5,6-dimethylpyrimidin-2-yl)(3-(2,3-difluorophenyl)-3-hydroxyazetidin-1-yl)methanone]
0.1305	1.63	0.28	0.74	Cc1nc(C(=O)NCC(C)(C)c2cccc(F)c2)nc(NCCc2cn[nH]c2)c1C [Compound 27, 4-((2-(1H-pyrazol-4-yl)ethyl)amino)-N-(2-(3-fluorophenyl)-2-methylpropyl)-5,6-dimethylpyrimidine-2-carboxamide]
0.21	1.51			Cc1nc(C(=O)N[C@H](C)c2cccc(F)c2)nc(NCCc2cn[nH]c2)c1C [Compound 39, (R)-4-((2-(1H-pyrazol-4-yl)ethyl)amino)-N-(1-(3-fluorophenyl)ethyl)-5,6-dimethylpyrimidine-2-carboxamide]
0.062	0.848	2.97	8.79	Cc1nc(C(=O)NC(c2cccc(F)c2)c2nccn2C)nc(NCCc2cn[nH]c2)c1C (stereo not shown) [Compound 20, 4-((2-(1H-pyrazol-4-yl)ethyl)amino)-N-((3-fluorophenyl)(1-methyl-1H-imidazol-2-yl)methyl)-5,6-dimethylpyrimidine-2-carboxamide]
0.0955	0.77	2.49	2.26	Cc1nc(C(=O)N2CCNCC2c2cccc(F)c2)nc(NCCc2cn[nH]c2)c1C (stereo not shown) [Compound 24, (4-((2-(1H-pyrazol-4-yl)ethyl)amino)-5,6-dimethylpyrimidin-2-yl)(2-(3-fluorophenyl)piperazin-1-yl)methanone]
0.0585	0.621	0.41	0.33	Cc1nc(C(=O)N2CCOC[C@H]2c2ccccc2)nc(NCCc2cn[nH]c2)c1C [Compound 16, (R)-(4-((2-(1H-pyrazol-4-yl)ethyl)amino)-5,6-dimethylpyrimidin-2-yl)(3-phenylmorpholino)methanone]
0.0745	0.597			Cc1nc(C(=O)N2CC(c3cccc(F)c3)C2)nc(NCCc2cn[nH]c2)c1C [Compound 18, (4-((2-(1H-pyrazol-4-yl)ethyl)amino)-5,6-dimethylpyrimidin-2-yl)(3-(3-fluorophenyl)azetidin-1-yl)methanone]
0.0715	0.549	0.24	0.44	Cc1nc(C(=O)N[C@H](C)c2ccccc2)nc(NCCc2cn[nH]c2)c1C [Compound 17, (R)-4-((2-(1H-pyrazol-4-yl)ethyl)amino)-5,6-dimethyl-N-(1-phenylethyl)pyrimidine-2-carboxamide]
0.046	0.52	0.2	0.47	Cc1nc(C(=O)N[C@@H](C)c2cccc(F)c2)nc(NCCc2cn[nH]c2)c1C [Compound 10, (S)-4-((2-(1H-pyrazol-4-yl)ethyl)amino)-N-(1-(3-fluorophenyl)ethyl)-5,6-dimethylpyrimidine-2-carboxamide]
0.1215	0.429	0.26	0.72	Cc1nc(C(=O)N[C@H](C)c2ccccc2Cl)nc(NCCc2cn[nH]c2)c1C [Compound 26, (R)-4-((2-(1H-pyrazol-4-yl)ethyl)amino)-N-(1-(2-chlorophenyl)ethyl)-5,6-dimethylpyrimidine-2-carboxamide]
0.029	0.326	0.19	0.19	Cc1nc(C(=O)N2CCOCC2c2cccc(F)c2)nc(NCCc2cn[nH]c2)c1C (stereo not shown) [Compound 7, (4-((2-(1H-pyrazol-4-yl)ethyl)amino)-5,6-dimethylpyrimidin-2-yl)(3-(3-fluorophenyl)morpholino)methanone]
